Like-named read-outs stand apart in the source and are kept apart here.
Experiments:
in vivo = conditions: rat, in vivo
Text: (2) apparatus: Model WFX-1B Spectrophotometer of Atomic Absorption was produced by The Second Optical Apparatus Factory of Beijing, 83114; P-E 3030 Spectrophotometer of Atomic Absorption was produced by Perkin-Elmer Corp.,USA;DT-100 Single-Pan Balance (1/10^4) was produced by Beijing Optical Apparatus Factory; TJ-6 Centrifuge was produced by Beckman, USA; Model MVS-1 Vortex Mixer was produced by Beijing Beide Scientific Apparatus and Materials Co. Ltd.
Twelve hours after the animals had been fasted, 0.5 mL plasma was sampled by excising eyeballs. The plasma was established as the blank group. Then rats were administered agents once in an amount of 20 mL/kg body weight by pouring into the stomach. 0.5 mL plasma was sampled by taking from eyeballs 0.25,0.5,1,1.5,2,3,4,6,8,12 and 16 hours later after the administration. […] The concentration of calcium was measured by a Model WFX-1B Spectrophotometer of Atomic Absorption.

ovariectomized rats = conditions: for serum Ca / serum P / serum Tr-ACP (in Bessey-Loury unit) / serum AKP (in Bessey-Loury unit): 75 days; for serum Ca: model-control 1.40 ± 0.72; for serum P: model-control 1.91 ± 0.34; for serum Tr-ACP (in Bessey-Loury unit): model-control 8.4 ± 2.8; for serum AKP (in Bessey-Loury unit): model-control 50.3 ± 15
Method: (3) Pure synthetic low-calcium diet was formulated by mixing 40% fine wheat flour, 40% maize flour, 10% tyroprotein, 5% peanut oil, 3% AIN-76 mixed salts, 1% AIN-76 mixed vitamins, 1% cellulose and 0.3% DL-methionine, in which the calcium salt in AIN-76 mixed salts was replaced by glucose, and this preparation contains 64 mg calcium/100 g.
The test period was 75 days.
Serum Ca, P and AKP were measured by a 4010 Automatic Biochemical Analyzer. Serum Ca was determined by calorimetric method using methylthymol blue. Serum P was determined by Mono-Reagent Method. Alkaline phosphatase was determined by method of disodium p-nitrophenylphosphonate (AKP) The tartaric-resistant acidic phosphatase (Tr-ACP) mineral was determined by Piedra procedure. All above reagent-box were available from the Clinical Chemicals Sub-plant of Beijing Chemical Plant.

rickets-mice [1] = experiment: Preventing rickets in younger mice: serum Ca, AKP, P; type: in vivo, mice of Kunming species; conditions: for serum Ca / serum P / serum AKP (in Bessey-Loury unit): 60 days; for serum Ca: model 1.55 ± 0.42; for serum P: model 2.23 ± 0.52; for serum AKP (in Bessey-Loury unit): model 101 ± 34
Method: (§1) The mice were bred for 60 days under conditions of avoiding light around-the-clock, at a temperature of 20-25° C. and a relative humility of 40-60% while the normal-control group mice were fed ordinary diet and water and were placed in non-dark room.
(§2) The low-calcium diet used in this test was the same as that in Test II but VD in the vitamin mixture was replaced by glucose.
(§3) Some weanling mice were placed in dark room and fed VD -deficient low-calcium diet and drunk de-ionized water for 60 days, thus a ricket model of baby mice was prepared. While other weanling mice were placed in non-dark room and fed ordinary diet and drunk tap water for 60 days, these mice were established as normal-control group.

rickets-mice [2] = experiment: Preventing rickets in younger mice: body weight, dry weight, ash weight and total calcium content of femur; type: in vivo, mice of Kunming species; conditions: for dry weight of femur: model 0.099 ± 0.014; for total calcium content: model 24.81 ± 4.36; for ash weight: model 46.62 ± 9.38
Method: as §1, §2, §3

rickets-mice [3] = experiment: Preventing rickets in younger mice: tibia strength (three-point bending); type: in vivo, mice of Kunming species; conditions: for breaking force (tibia): model 1.12 ± 0.37
Method: as §1, §2, §3

rickets-babies = system: rickets-babies
Method: Fourty rickets-babies at the age of 3-10 months were randomly divided into 2 groups of 20 babies each. […] Test group II, namely the calcium carbonate group, were administered orally calcium carbonate twice a day in a dosage of one bag each time.
(2) Biochemical examinations of blood. Venous blood of rickets-baby was sampled before and after the beginning of test and serum Ca, P and AKP level were measured and the product of [Ca]×[P] was calculated.
(3) Data processing: All data was statistically analyzed using the method of direct calculation of probability, grouping t-test and pairing t-test.
Considering the difficulty in sampling blood from rickets-babies during the test operation, blood sampling was not performed at the second week after the beginning of the test. Blood sampling was only performed before the test and at the fourth week after the beginning of the test.

[4] = Solubility of calcium L-threonate; type: physicochemical
[5] = dog, in vivo
[6] = system: castrated male rats with osteoporosis; conditions: for K (calcification of bone): model-control 1.50 ± 0.26; for P (strength of femur): model-control 5.2 ± 1.1; for Y (flexibility, tenacity): model-control 8.0 ± 1.2; for S (work to break the bone): model-control 24.5 ± 7.5
Method: Three-point bending test was done on the fresh femur iced in refrigerator with a Model WD-1 Electron Universal Test Machine under the following conditions: a span of 2.5 cm, a 25 kg sensor (1/50), a speed of 2 mm/minute. The function of load versus flexibility was recorded by a finction recorder, wherein P represented the maximum of force at yielding point, Y was flexibility indicating the tenacity of materials. K, as the rate of slope, was a rigidity parameter of materials and was associated with the degree of calcification in bone mechanics. S stood for the work to yield or break femur.
In this test, chemicals were the saine as in test II, animals were male Wistar rats each weighing 150±10 g and were provided by Animal Center of the National Institute for the Identification of Pharmaceuticals and Biological Products, Beijing. The breeding of the rats was the same as in test II.
The male rats each weighing 150±10 g were excised of bilateral spermaries and were fed low-calcium diet and offered deionized water for 60 days, thus made a model of osteoporosis.
Seventy of the castrated male rats were divided into groups and tested in the same manner as Test II but the days of administration were 52 days during the 60 days of test.
In this test, the measuring methods for serum Ca, P, AKP levels, the bone mineral density, the length of femur, wet weight, dry weight, ash weight, the calcium content and the biomechanics of femur were all the same as in test II.

[7] = system: ovariectomized rats with osteoporosis; experiment: Test II: bone mineral density of femur in ovariectomized rats; conditions: for bone density F50: center of femur; for bone density F20: proximal position 20%, model-control 0.256 ± 0.022
Method: Female 3-month-aged rats which had been excised of bilateral ovaries under sterilized condition were fed for a week until their wound was cured. Seventy healthy rats were selected and divided randomly into five groups of 14 rats. […] Group 1-5 were administered one time per day and 6 times per week and were also fed low-calcium diet and de-ionized water. The test period was 75 days. […] The bilateral femurs of rats were stripped off and stored in refrigerator. After the measurement of the bone mineral density, the left femur was stored for analysis of biomechanical characteristics.
(4) Measurement of bone mineral density. Fresh femur iced in refrigerator was measured of bone mineral content at the center (F50) and the proximal position 20% (F20) of femur by single photon absorptiometry (Model BMD400GI) with a scanning speed of 0.25 mm/s and a precision degree of 99%, the Apparatus was proofread using a standard apparatus provided by Jishuitan Hospital, Beijing. The data was processed by software used clinically. The bone mineral content was expressed by a unit of bone mineral content per square centimeter (BMC/cm^2).

[8] = after four weeks of Ca-supplementing

Compound: O=C(O)[C@H](O)[C@@H](O)CO [calcium L-threonate]
- absorption rate constant ka (in vivo): 6.14 h⁻¹
- CL/F (in vivo; po): 17.3 mL/min/kg
- Vd/F (in vivo; po): 6.69 L/kg
- AUC (in vivo; po, 200 mg/kg): 192 µg·h/mL
- Cmax (in vivo; po, 200 mg/kg): 27200 ng/mL
- half-life (in vivo; po, 200 mg/kg): 4.45 h
- Tmax (in vivo; po, 200 mg/kg, Tmax): 0.797 h
- serum Ca (ovariectomized rats; 100 mg element calcium/kg/d): 1.60 ± 0.75 mmol/L
- serum P (ovariectomized rats; 100 mg element calcium/kg/d): 2.08 ± 0.66 mmol/L
- serum Tr-ACP (in Bessey-Loury unit) (ovariectomized rats; 100 mg element calcium/kg/d): 8.8 ± 1.8 U/L
- serum AKP (in Bessey-Loury unit) (ovariectomized rats; 100 mg element calcium/kg/d): 48.7 ± 8.0 U/L
- serum Ca (ovariectomized rats; 200 mg element calcium/kg/d): 2.35 ± 0.35 mmol/L
- serum P (ovariectomized rats; 200 mg element calcium/kg/d): 1.87 ± 0.58 mmol/L
- serum Tr-ACP (in Bessey-Loury unit) (ovariectomized rats; 200 mg element calcium/kg/d): 7.9 ± 2.4 U/L
- serum AKP (in Bessey-Loury unit) (ovariectomized rats; 200 mg element calcium/kg/d): 41.4 ± 14 U/L
- serum Ca (ovariectomized rats; 300 mg element calcium/kg/d): 2.30 ± 0.75 mmol/L
- serum P (ovariectomized rats; 300 mg element calcium/kg/d): 1.88 ± 0.58 mmol/L
- serum Tr-ACP (in Bessey-Loury unit) (ovariectomized rats; 300 mg element calcium/kg/d): 7.2 ± 2.1 U/L
- serum AKP (in Bessey-Loury unit) (ovariectomized rats; 300 mg element calcium/kg/d): 38.2 ± 10 U/L
- AKP and Tr-ACP effect (in words) (ovariectomized rats; chronic feeding): might decrease the AKP and Tr-ACP levels in serum
- serum Ca effect (in words) (ovariectomized rats; long-time feeding): markedly raise the serum calcium level
- blood P effect (in words) (ovariectomized rats; rat, in vivo): no evidence
- serum Ca (rickets-mice [1]; 200 mg calcium element): 2.33 ± 0.82 mmol/L
- serum P (rickets-mice [1]; 200 mg calcium element): 1.52 ± 0.45 mmol/L
- serum AKP (in Bessey-Loury unit) (rickets-mice [1]; 200 mg calcium element): 59.3 ± 14 U/L
- serum Ca (rickets-mice [1]; 300 mg calcium element): 2.17 ± 0.82 mmol/L
- serum P (rickets-mice [1]; 300 mg calcium element): 1.35 ± 0.34 mmol/L
- serum AKP (in Bessey-Loury unit) (rickets-mice [1]; 300 mg calcium element): 43.1 ± 14 U/L
- serum Ca effect (in words) (rickets-mice [1]; high and low dosage): approximate to that of the normal-control group but were much higher than those of the model group
- serum AKP effect (in words) (rickets-mice [1]; mouse, in vivo): much lower than those of the model group
- dry weight of femur (rickets-mice [2]; 200 mg calcium element): 0.121 ± 0.010 g
- total calcium content (rickets-mice [2]; 200 mg calcium element): 36.23 mg
- ash weight (rickets-mice [2]; 200 mg calcium element): 69.44 ± 6.62 mg
- dry weight of femur (rickets-mice [2]; 300 mg calcium element): 0.131 ± 0.013 g
- total calcium content (rickets-mice [2]; 300 mg calcium element): 38.90 ± 13.78 mg
- ash weight (rickets-mice [2]; 300 mg calcium element): 74.73 ± 12.31 mg
- Ca deposited in femur versus calcium gluconate (in words) (rickets-mice [2]; P<0.05): much higher than that of calcium gluconate
- dry femur weight, ash weight and total calcium content (in words) (rickets-mice [2]; high and low dosage): markedly higher than those of the model group and were approximate to those of the normal-control group
- breaking force (tibia) (rickets-mice [3]; 200 mg calcium element): 1.49 ± 0.38 kg
- breaking force (tibia) (rickets-mice [3]; 300 mg calcium element): 1.59 ± 0.27 kg
- breaking force of tibia (in words) (rickets-mice [3]; mouse, in vivo): significantly higher than those for the model group and were comparable with those for the normal-control group
- percentage of babies whose AKP reached the normal range (rickets-babies; [8]): 90%
- percentage of babies whose [Ca] × [P] reached the normal range (rickets-babies; [8]): 100%
- percentage of babies whose serum P reached the normal range (rickets-babies; [8]): 100%
- serum Ca change (in words) (rickets-babies; before and after the test, P>0.05): no significant variation
- serum P and AKP after test versus normal range (in words) (rickets-babies; four weeks): raise the indexes to the normal range of value
- serum P (rickets-babies; four weeks after, before 3.19 ± 0.25 (threonate), 3.12 ± 0.20 (carbonate)): 4.50 ± 0.26
- serum Ca (rickets-babies; four weeks after, before 10.49 ± 0.39 (threonate), 10.51 ± 0.47 (carbonate)): 10.65 ± 0.35
- [Ca] × [P] (rickets-babies; four weeks after, before 33.4 ± 2.47 (threonate), 33.83 ± 2.17 (carbonate)): 47.34 ± 3.15
- AKP (rickets-babies; four weeks after, before 235.95 ± 7.89 (threonate), 235.25 ± 7.37 (carbonate)): 203.75 ± 11.46
- solubility in alcohol, ether and chloroform ([4]; alcohol, ether, chloroform): not in alcohol, ether and chloroform
- solubility in water ([4]; water): can be solved in water
- kinetic change of serum levels and pharmaceutical dynamic parameters (in words) [5]: consistent with those of rats
- K (calcification of bone) ([6]; 100 mg element calcium/kg/d): 2.05 ± 0.25
- P (strength of femur) ([6]; 100 mg element calcium/kg/d): 7.6 ± 1.1
- Y (flexibility, tenacity) ([6]; 100 mg element calcium/kg/d): 7.3 ± 1.6
- S (work to break the bone) ([6]; 100 mg element calcium/kg/d): 29.7
- K (calcification of bone) ([6]; 200 mg element calcium/kg/d): 2.27 ± 0.42
- P (strength of femur) ([6]; 200 mg element calcium/kg/d): 8.7 ± 1.2
- Y (flexibility, tenacity) ([6]; 200 mg element calcium/kg/d): 6.6 ± 1.1
- S (work to break the bone) ([6]; 200 mg element calcium/kg/d): 28.3
- K (calcification of bone) ([6]; 300 mg element calcium/kg/d): 2.52 ± 0.22
- P (strength of femur) ([6]; 300 mg element calcium/kg/d): 9.3 ± 0.9
- Y (flexibility, tenacity) ([6]; 300 mg element calcium/kg/d): 6.3 ± 1.0
- S (work to break the bone) ([6]; 300 mg element calcium/kg/d): 28.7 ± 7.8
- P,K,S values (in words) ([6]; rat, in vivo): markedly increased in contrast to those of the model group rats
- bone density F50 ([7]; 100 mg element calcium/kg/d): 0.289 ± 0.021 BMC/BW
- bone density F20 ([7]; 100 mg element calcium/kg/d): 0.288 ± 0.021 BMC/BW
- bone density F50 ([7]; 200 mg element calcium/kg/d): 0.282 ± 0.020 BMC/BW
- bone density F20 ([7]; 200 mg element calcium/kg/d): 0.315 ± 0.032 BMC/BW
- bone density F20 ([7]; 300 mg element calcium/kg/d): 0.314 ± 0.020 BMC/BW
- bone density effect (in words) ([7]; versus model-control group): markedly higher than that of model-control group rats

— patent publication US6077872A (priority 1998, dated 2000)
